The values below come from ChEMBL document CHEMBL4190403, “Design, synthesis, and biological evaluation of pyrazole derivatives containing acetamide bond as potential BRAFV600E inhibitors” (Bioorg Med Chem Lett, 2018).

Assay [1] relates to HT-29. The experiment in a line: Antiproliferative activity against human HT-29 cells harboring BRAF V600E mutant after 24 hrs by MTT assay. The class given is functional, cell-based. The conditions noted are these: HT-29, 24 h. Background: Formazan colour is commonly taken as a measure of viable cells.
Assay [2] is described as follows: Antiproliferative activity against human WM1361 cells harboring wild-type BRAF after 48 hrs by MTT assay. The format is functional, cell-based. The conditions noted are these: WM1361, 48 h.
Assay [3] concerns the target Serine/threonine-protein kinase B-raf (Mus musculus, UniProt P28028, V600E). Kind of assay: Inhibition of full-length GST-tagged mouse BRAF V600E mutant using recombinant human full length N-terminal His-tagged MEK1 as substrate preincubated for 1 hr followed by substrate addition measured after 25 mins by Nu-page gel-based phosphor screen analysis.
In assay [4] the test system is A-375. Kind of assay: Antiproliferative activity against human A375 cells harboring BRAF V600E mutant after 24 hrs by MTT assay. Particulars: A-375, 24 h. The format is functional, cell-based.

Sequence of Serine/threonine-protein kinase B-raf (P28028 whole entry, looked up, stated change not applied): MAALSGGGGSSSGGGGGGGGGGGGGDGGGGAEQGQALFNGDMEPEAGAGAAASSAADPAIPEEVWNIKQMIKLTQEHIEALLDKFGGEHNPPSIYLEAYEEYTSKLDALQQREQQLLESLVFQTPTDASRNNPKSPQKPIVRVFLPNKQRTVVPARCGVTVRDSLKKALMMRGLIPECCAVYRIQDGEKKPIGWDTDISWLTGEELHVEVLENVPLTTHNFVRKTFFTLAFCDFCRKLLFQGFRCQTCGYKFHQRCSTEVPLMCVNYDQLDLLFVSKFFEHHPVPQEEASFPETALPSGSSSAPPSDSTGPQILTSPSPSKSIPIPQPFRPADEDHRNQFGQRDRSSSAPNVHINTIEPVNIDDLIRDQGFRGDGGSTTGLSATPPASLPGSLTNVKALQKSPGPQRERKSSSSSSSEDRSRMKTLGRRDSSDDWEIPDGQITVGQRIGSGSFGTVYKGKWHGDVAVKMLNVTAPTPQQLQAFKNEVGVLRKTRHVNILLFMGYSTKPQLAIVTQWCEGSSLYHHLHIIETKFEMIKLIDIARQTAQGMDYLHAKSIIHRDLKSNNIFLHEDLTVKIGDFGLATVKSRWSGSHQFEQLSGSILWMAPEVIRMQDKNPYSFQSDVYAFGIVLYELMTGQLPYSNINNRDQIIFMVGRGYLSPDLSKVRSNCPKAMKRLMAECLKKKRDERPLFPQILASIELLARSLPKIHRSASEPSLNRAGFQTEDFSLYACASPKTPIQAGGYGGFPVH

As for `COc1ccc(CC(=O)Nc2cnn(-c3ccc(C)cc3)c2)cc1OC`, the IC50 – broadly, the concentration needed to halve the response being measured – in assay [1] turned out to be 8.73 µM; in assay [2], 16.6 µM; in assay [3], 0.45 µM; in assay [4], 2.74 µM.

As to `Cc1ccc(-n2cc(NC(=O)Cn3ccc4ccccc43)cn2)cc1`, the IC50 in assay [1] came to 24.1 µM; in assay [2] it was 27.4 µM; in assay [3], 2.34 µM; in assay [4], 24.5 µM.

In the case of `Cn1cc(NC(=O)Cn2ccc3ccccc32)cn1`, the IC50 in assay [1] was found to be 35.1 µM; in assay [2], 36.5 µM; in assay [3] it was 4.66 µM; in assay [4] it was 28.9 µM.

As for `CCn1cc(NC(=O)Cn2ccc(-c3cccc(Cl)c3)n2)cn1`, the IC50 in assay [1] stood at 12.9 µM; in assay [2], 26.5 µM; in assay [3], 1.19 µM; in assay [4], 19.4 µM.

As for `COc1cccc(-n2cc(NC(=O)Cn3ccc4ccccc43)cn2)c1`, the IC50 is 10.1 µM in assay [1], 16.5 µM in assay [2], 0.46 µM in assay [3] and 5.67 µM in assay [4].

For the compound `O=C(Cn1ccc(-c2ccccn2)n1)Nc1cnn(Cc2ccccc2)c1`, the IC50 in assay [1] worked out at 12.7 µM; in assay [2] it was 28 µM; in assay [3] it was 0.55 µM; in assay [4], 19.8 µM.

As to `CCn1cc(NC(=O)Cn2ccc(-c3ccccn3)n2)cn1`, the IC50 in assay [1] was found to be 26.8 µM; in assay [2], 29.8 µM; in assay [3], 3.86 µM; in assay [4], 23.3 µM.

On to `COc1ccc(CC(=O)Nc2cnn(C)c2)cc1OC`, for which the IC50 in assay [1] was found to be 32.8 µM; in assay [2], 40.3 µM; in assay [3], 4.43 µM; in assay [4] it was 18.6 µM.

As for `Cn1cc(NC(=O)Cn2ccc(-c3ccccn3)n2)cn1`, the IC50 in assay [1] worked out at 25.4 µM; in assay [2], 31.9 µM; in assay [3], 2.54 µM; in assay [4], 23.7 µM.

Turning to `COc1ccc(-n2cc(NC(=O)Cc3ccc(OC)c(OC)c3)cn2)cc1`, the IC50 in assay [1] was 9.33 µM; in assay [2], 17.6 µM; in assay [3] it was 0.41 µM; in assay [4], 4.57 µM.

Regarding `O=C(Cn1ccc(-c2ccccn2)n1)Nc1cnn(-c2ccccc2)c1`, the IC50 in assay [1] is 10.8 µM; in assay [2], 20.7 µM; in assay [3], 0.53 µM; in assay [4] it was 10.6 µM.

As to `COc1cccc(-n2cc(NC(=O)Cn3ccc(-c4ccccn4)n3)cn2)c1`, the IC50 in assay [1] turned out to be 6.16 µM; in assay [2], 15.7 µM; in assay [3], 0.26 µM; in assay [4], 3.08 µM.

`COc1ccc(-n2cc(NC(=O)Cn3ccc4ccccc43)cn2)cc1`: the IC50 is 12.7 µM in assay [1], 24.8 µM in assay [2], 1.28 µM in assay [3] and 19.8 µM in assay [4].

With `O=C(Cn1ccc2ccccc21)Nc1cnn(-c2ccccc2)c1`, the IC50 in assay [1] is 26.6 µM; in assay [2] it was 25.8 µM; in assay [3] it was 1.23 µM; in assay [4] it was 24.2 µM.

With `COc1ccc(CC(=O)Nc2cnn(-c3ccccc3)c2)cc1OC`, the IC50 worked out at 11.5 µM in assay [1], 25.6 µM in assay [2], 0.73 µM in assay [3] and 16.2 µM in assay [4].

As for `CCn1cc(NC(=O)Cn2ccc3ccccc32)cn1`, the IC50 in assay [1] worked out at 49.9 µM; in assay [2], 47.8 µM; in assay [3], 1.82 µM; in assay [4], 27.2 µM.

As to `COc1ccc(CC(=O)Nc2cnn(Cc3ccccc3)c2)cc1OC`, the IC50 in assay [1] came to 8.43 µM; in assay [2] it was 18.8 µM; in assay [3], 0.5 µM; in assay [4] it was 10.4 µM.

`O=C(Cn1ccc2ccccc21)Nc1cnn(Cc2ccccc2)c1`: the IC50 came out at 12.3 µM in assay [1], 26.8 µM in assay [2], 1.96 µM in assay [3] and 17.6 µM in assay [4].

`Cn1cc(NC(=O)Cn2ccc(-c3cccc(Cl)c3)n2)cn1`: the IC50 in assay [1] was 22.6 µM; in assay [2], 27.9 µM; in assay [3] it was 1.67 µM; in assay [4], 16.8 µM.

On to `COc1ccc(-n2cc(NC(=O)Cn3ccc(-c4ccccn4)n3)cn2)cc1`, for which the IC50 came out at 11.1 µM in assay [1], 24.4 µM in assay [2], 0.48 µM in assay [3] and 11.2 µM in assay [4].

Turning to `CCn1cc(NC(=O)Cc2ccc(OC)c(OC)c2)cn1`, the IC50 in assay [1] stood at 25.6 µM; in assay [2] it was 31.4 µM; in assay [3] it was 3.66 µM; in assay [4] it was 17.9 µM.

On to `COc1cccc(-n2cc(NC(=O)Cc3ccc(OC)c(OC)c3)cn2)c1`, for which the IC50 was 7.98 µM in assay [1], 24 µM in assay [2], 0.36 µM in assay [3] and 3.49 µM in assay [4].

For the compound `O=C(Cn1ccc(-c2cccc(Cl)c2)n1)Nc1cnn(Cc2ccccc2)c1`, the IC50 in assay [1] was 5.7 µM; in assay [2] it was 14.9 µM; in assay [3] it was 0.34 µM; in assay [4], 3.26 µM.
